# Test system: Genes belonging to other category
# Experiment: DNA chip mRNA expression in yeast, genes belonging to other category (Table 9)
# Assay type: cell-based, Saccharomyces cerevisiae S288C
# Method in brief: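 Chemical exposure: 2 h, log-phase S. cerevisiae S288C, YPD, 25° C., dose set to inhibit growth without death. Profiling: mRNA labeled by reverse transcription with Cy3- or Cy5-dUTP, hybridized to whole-genome array. Output: fluorescence ratio against untreated culture.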
structure (smiles),measurement,setting,value
"CN(C)C(=S)SSC(=S)N(C)C [(10), Tetramethylthiuram disulfide]",The level of expressed mRNA in the presence of chemical substance/The level of expressed mRNA in the absence of chemical substance,yeast gene YJR058C,2.6
same,The level of expressed mRNA in the presence of chemical substance/The level of expressed mRNA in the absence of chemical substance,yeast gene YJR086W,1.1
same,The level of expressed mRNA in the presence of chemical substance/The level of expressed mRNA in the absence of chemical substance,yeast gene YJR110W,2.3
same,The level of expressed mRNA in the presence of chemical substance/The level of expressed mRNA in the absence of chemical substance,yeast gene YJR123W,0.5
same,The level of expressed mRNA in the presence of chemical substance/The level of expressed mRNA in the absence of chemical substance,yeast gene YKL007W,2.4
same,The level of expressed mRNA in the presence of chemical substance/The level of expressed mRNA in the absence of chemical substance,yeast gene YKL008C,0.4
same,The level of expressed mRNA in the presence of chemical substance/The level of expressed mRNA in the absence of chemical substance,yeast gene YKL013C,1.4
same,The level of expressed mRNA in the presence of chemical substance/The level of expressed mRNA in the absence of chemical substance,yeast gene YKL039W,3.3
same,The level of expressed mRNA in the presence of chemical substance/The level of expressed mRNA in the absence of chemical substance,yeast gene YKL041W,1.5
same,The level of expressed mRNA in the presence of chemical substance/The level of expressed mRNA in the absence of chemical substance,yeast gene YKL079W,2.0
same,The level of expressed mRNA in the presence of chemical substance/The level of expressed mRNA in the absence of chemical substance,yeast gene YKL096W,0.5
same,The level of expressed mRNA in the presence of chemical substance/The level of expressed mRNA in the absence of chemical substance,yeast gene YKL117W,2.1
same,The level of expressed mRNA in the presence of chemical substance/The level of expressed mRNA in the absence of chemical substance,yeast gene YKL139W,1.5
same,The level of expressed mRNA in the presence of chemical substance/The level of expressed mRNA in the absence of chemical substance,yeast gene YKL165C,0.4
same,The level of expressed mRNA in the presence of chemical substance/The level of expressed mRNA in the absence of chemical substance,yeast gene YKL171W,1.8
same,The level of expressed mRNA in the presence of chemical substance/The level of expressed mRNA in the absence of chemical substance,yeast gene YKL193C,1.6
same,The level of expressed mRNA in the presence of chemical substance/The level of expressed mRNA in the absence of chemical substance,yeast gene YKR014C,2.0
same,The level of expressed mRNA in the presence of chemical substance/The level of expressed mRNA in the absence of chemical substance,yeast gene YKR098C,2.7
same,The level of expressed mRNA in the presence of chemical substance/The level of expressed mRNA in the absence of chemical substance,yeast gene YLL050C,1.0
same,The level of expressed mRNA in the presence of chemical substance/The level of expressed mRNA in the absence of chemical substance,yeast gene YLL051C,1.8
same,The level of expressed mRNA in the presence of chemical substance/The level of expressed mRNA in the absence of chemical substance,yeast gene YLR120C,1.6
same,The level of expressed mRNA in the presence of chemical substance/The level of expressed mRNA in the absence of chemical substance,yeast gene YLR121C,2.0
same,The level of expressed mRNA in the presence of chemical substance/The level of expressed mRNA in the absence of chemical substance,yeast gene YLR136C,6.0
same,The level of expressed mRNA in the presence of chemical substance/The level of expressed mRNA in the absence of chemical substance,yeast gene YLR178C,4.1
same,The level of expressed mRNA in the presence of chemical substance/The level of expressed mRNA in the absence of chemical substance,yeast gene YLR200W,2.6
same,The level of expressed mRNA in the presence of chemical substance/The level of expressed mRNA in the absence of chemical substance,yeast gene YLR250W,2.4
same,The level of expressed mRNA in the presence of chemical substance/The level of expressed mRNA in the absence of chemical substance,yeast gene YLR266C,2.6
same,The level of expressed mRNA in the presence of chemical substance/The level of expressed mRNA in the absence of chemical substance,yeast gene YLR327C,8.3
same,The level of expressed mRNA in the presence of chemical substance/The level of expressed mRNA in the absence of chemical substance,yeast gene YLR340W,0.5
same,The level of expressed mRNA in the presence of chemical substance/The level of expressed mRNA in the absence of chemical substance,yeast gene YLR356W,1.6
same,The level of expressed mRNA in the presence of chemical substance/The level of expressed mRNA in the absence of chemical substance,yeast gene YLR362W,3.3
same,The level of expressed mRNA in the presence of chemical substance/The level of expressed mRNA in the absence of chemical substance,yeast gene YLR391W,0.7
same,The level of expressed mRNA in the presence of chemical substance/The level of expressed mRNA in the absence of chemical substance,yeast gene YLR423C,1.0
same,The level of expressed mRNA in the presence of chemical substance/The level of expressed mRNA in the absence of chemical substance,yeast gene YLR429W,1.3
same,The level of expressed mRNA in the presence of chemical substance/The level of expressed mRNA in the absence of chemical substance,yeast gene YML130C,4.2
same,The level of expressed mRNA in the presence of chemical substance/The level of expressed mRNA in the absence of chemical substance,yeast gene YMR004W,3.4
same,The level of expressed mRNA in the presence of chemical substance/The level of expressed mRNA in the absence of chemical substance,yeast gene YMR094W,0.9
same,The level of expressed mRNA in the presence of chemical substance/The level of expressed mRNA in the absence of chemical substance,yeast gene YMR104C,3.2
same,The level of expressed mRNA in the presence of chemical substance/The level of expressed mRNA in the absence of chemical substance,yeast gene YMR110C,1.6
same,The level of expressed mRNA in the presence of chemical substance/The level of expressed mRNA in the absence of chemical substance,yeast gene YMR214W,1.0
same,The level of expressed mRNA in the presence of chemical substance/The level of expressed mRNA in the absence of chemical substance,yeast gene YMR219W,0.9
same,The level of expressed mRNA in the presence of chemical substance/The level of expressed mRNA in the absence of chemical substance,yeast gene YMR226C,2.2
same,The level of expressed mRNA in the presence of chemical substance/The level of expressed mRNA in the absence of chemical substance,yeast gene YMR255W,2.4
same,The level of expressed mRNA in the presence of chemical substance/The level of expressed mRNA in the absence of chemical substance,yeast gene YMR275C,2.1
same,The level of expressed mRNA in the presence of chemical substance/The level of expressed mRNA in the absence of chemical substance,yeast gene YMR276W,1.7
same,The level of expressed mRNA in the presence of chemical substance/The level of expressed mRNA in the absence of chemical substance,yeast gene YMR297W,1.0
same,The level of expressed mRNA in the presence of chemical substance/The level of expressed mRNA in the absence of chemical substance,yeast gene YMR314W,2.7
same,The level of expressed mRNA in the presence of chemical substance/The level of expressed mRNA in the absence of chemical substance,yeast gene YNL006W,4.0
same,The level of expressed mRNA in the presence of chemical substance/The level of expressed mRNA in the absence of chemical substance,yeast gene YNL007C,1.7
same,The level of expressed mRNA in the presence of chemical substance/The level of expressed mRNA in the absence of chemical substance,yeast gene YNL083W,1.6
same,The level of expressed mRNA in the presence of chemical substance/The level of expressed mRNA in the absence of chemical substance,yeast gene YNL093W,2.0
same,The level of expressed mRNA in the presence of chemical substance/The level of expressed mRNA in the absence of chemical substance,yeast gene YNL135C,0.5
same,The level of expressed mRNA in the presence of chemical substance/The level of expressed mRNA in the absence of chemical substance,yeast gene YNL139C,0.7
same,The level of expressed mRNA in the presence of chemical substance/The level of expressed mRNA in the absence of chemical substance,yeast gene YNL333W,2.1
same,The level of expressed mRNA in the presence of chemical substance/The level of expressed mRNA in the absence of chemical substance,yeast gene YNR010W,0.9
same,The level of expressed mRNA in the presence of chemical substance/The level of expressed mRNA in the absence of chemical substance,yeast gene YNR069C,5.8
same,The level of expressed mRNA in the presence of chemical substance/The level of expressed mRNA in the absence of chemical substance,yeast gene YOL013C,1.0
same,The level of expressed mRNA in the presence of chemical substance/The level of expressed mRNA in the absence of chemical substance,yeast gene YOL038W,2.7
same,The level of expressed mRNA in the presence of chemical substance/The level of expressed mRNA in the absence of chemical substance,yeast gene YOL164W,3.6
same,The level of expressed mRNA in the presence of chemical substance/The level of expressed mRNA in the absence of chemical substance,yeast gene YOR028C,2.0
same,The level of expressed mRNA in the presence of chemical substance/The level of expressed mRNA in the absence of chemical substance,yeast gene YOR036W,1.9
same,The level of expressed mRNA in the presence of chemical substance/The level of expressed mRNA in the absence of chemical substance,yeast gene YOR058C,4.5
same,The level of expressed mRNA in the presence of chemical substance/The level of expressed mRNA in the absence of chemical substance,yeast gene YOR117W,1.8
same,The level of expressed mRNA in the presence of chemical substance/The level of expressed mRNA in the absence of chemical substance,yeast gene YOR124C,1.9
same,The level of expressed mRNA in the presence of chemical substance/The level of expressed mRNA in the absence of chemical substance,yeast gene YOR132W,1.6
same,The level of expressed mRNA in the presence of chemical substance/The level of expressed mRNA in the absence of chemical substance,yeast gene YOR149C,1.0
same,The level of expressed mRNA in the presence of chemical substance/The level of expressed mRNA in the absence of chemical substance,yeast gene YOR157C,2.6
same,The level of expressed mRNA in the presence of chemical substance/The level of expressed mRNA in the absence of chemical substance,yeast gene YOR181W,0.5
same,The level of expressed mRNA in the presence of chemical substance/The level of expressed mRNA in the absence of chemical substance,yeast gene YOR185C,2.9
same,The level of expressed mRNA in the presence of chemical substance/The level of expressed mRNA in the absence of chemical substance,yeast gene YOR198C,1.4
same,The level of expressed mRNA in the presence of chemical substance/The level of expressed mRNA in the absence of chemical substance,yeast gene YOR259C,1.5
same,The level of expressed mRNA in the presence of chemical substance/The level of expressed mRNA in the absence of chemical substance,yeast gene YOR261C,2.5
same,The level of expressed mRNA in the presence of chemical substance/The level of expressed mRNA in the absence of chemical substance,yeast gene YOR285W,2.9
same,The level of expressed mRNA in the presence of chemical substance/The level of expressed mRNA in the absence of chemical substance,yeast gene YOR288C,1.0
same,The level of expressed mRNA in the presence of chemical substance/The level of expressed mRNA in the absence of chemical substance,yeast gene YOR298W,1.0
same,The level of expressed mRNA in the presence of chemical substance/The level of expressed mRNA in the absence of chemical substance,yeast gene YOR355W,0.8
same,The level of expressed mRNA in the presence of chemical substance/The level of expressed mRNA in the absence of chemical substance,yeast gene YOR383C,4.5
same,The level of expressed mRNA in the presence of chemical substance/The level of expressed mRNA in the absence of chemical substance,yeast gene YPL001W,1.0
same,The level of expressed mRNA in the presence of chemical substance/The level of expressed mRNA in the absence of chemical substance,yeast gene YPL020C,1.6
same,The level of expressed mRNA in the presence of chemical substance/The level of expressed mRNA in the absence of chemical substance,yeast gene YPL089C,2.5
same,The level of expressed mRNA in the presence of chemical substance/The level of expressed mRNA in the absence of chemical substance,yeast gene YPL109C,1.5
same,The level of expressed mRNA in the presence of chemical substance/The level of expressed mRNA in the absence of chemical substance,yeast gene YPL124W,1.0
same,The level of expressed mRNA in the presence of chemical substance/The level of expressed mRNA in the absence of chemical substance,yeast gene YPL149W,3.7
same,The level of expressed mRNA in the presence of chemical substance/The level of expressed mRNA in the absence of chemical substance,yeast gene YPL154C,1.7
same,The level of expressed mRNA in the presence of chemical substance/The level of expressed mRNA in the absence of chemical substance,yeast gene YPL177C,1.0
same,The level of expressed mRNA in the presence of chemical substance/The level of expressed mRNA in the absence of chemical substance,yeast gene YPL220W,0.5
same,The level of expressed mRNA in the presence of chemical substance/The level of expressed mRNA in the absence of chemical substance,yeast gene YPL230W,2.7
same,The level of expressed mRNA in the presence of chemical substance/The level of expressed mRNA in the absence of chemical substance,yeast gene YPR081C,2.6
same,The level of expressed mRNA in the presence of chemical substance/The level of expressed mRNA in the absence of chemical substance,yeast gene YPR103W,2.0
same,The level of expressed mRNA in the presence of chemical substance/The level of expressed mRNA in the absence of chemical substance,yeast gene YPR108W,2.8
same,The level of expressed mRNA in the presence of chemical substance/The level of expressed mRNA in the absence of chemical substance,yeast gene YPR149W,1.8
same,The level of expressed mRNA in the presence of chemical substance/The level of expressed mRNA in the absence of chemical substance,yeast gene YPR168W,2.7
